Measurements taken from PMC9783868, “Indoline-5-Sulfonamides: A Role of the Core in Inhibition of Cancer-Related Carbonic Anhydrases, Antiproliferative Activity and Circumventing of Multidrug Resistance” (Pharmaceuticals, 2022).
Like-named read-outs stand apart in the source and are kept apart here.

Assays:
[1] = tested on: GLUT1; test: Immunoblotting of hypoxia-induced protein expression in A431 cells; type: cell-based, human; conditions: hypoxia 24 h
Procedure: (§1) We wondered whether compound 4f affected CA IX expression or whether its activity was limited to inhibiting the enzyme activity reported above (Table 1). To induce CA IX expression, cells were placed in hypoxia for 24 h, and then protein expression was analyzed by immunoblotting. Because the data on the expression of hypoxia-related proteins in the literature are highly inconsistent, we introduced additional controls. Antibodies to hypoxia-regulated and “non-hypoxic” proteins were used. The expression of kinase Akt, which is not regulated directly by hypoxia/HIF-1α, was not altered under hypoxia conditions (Figure 5F). […] Thus, lead compound 4f not only blocks the enzyme activity of CA IX, but also causes partial inhibition of hypoxia-induced CA IX expression in skin cancer cells.
(§2) A431 cells were seeded on 100 mm dishes (Corning, Corning, NY, USA), and after 24 h growth, the compound 4f was added to a fresh medium. To prepare cell extracts, A431 cells were twice washed in phosphate buffer and incubated for 10 min on ice in the modified lysis buffer containing 50 mM Tris-HCl, pH 7.5, 0.5% Igepal CA-630, 150 mM NaCl, 1 mM EDTA, 1 mM DTT, 1 mM PMSF, 0.1 mM sodium orthovanadate and aprotinin, leupeptin and pepstatin (1 µg/mL each) as described earlier in the work. The protein content was determined by the Bradford method.
(§3) A431 cell lysates were separated in 10% SDS-PAGE under reducing conditions, transferred to a nitrocellulose membrane (GE HealthCare, Chicago, IL, USA), and processed according to a standard protocol. Akt, GLUT1, PD-L1, and CA IX antibodies were obtained from Cell Signaling Technology (Danvers, MA, USA); the antibodies against GAPDH (Cell Signaling Technology) were added to standardize loading. Goat anti-rabbit IgGs (Jackson ImmunoResearch, West Grove, PA, USA) conjugated to horseradish peroxidase were used as secondary antibodies. Signals were detected using the ECL reagent as described in Mruk and Cheng’s protocol and an ImageQuant LAS4000 system (GE HealthCare).

[2] = tested on: CA IX; test: as above; type: cell-based, human; conditions: hypoxia 24 h
Procedure: as §1, §2, §3

[3] = tested on: PD-L1; test: as above; type: cell-based, human; conditions: hypoxia 24 h
Procedure: as §1, §2, §3

[4] = tested on: MCF7 cells; test: Antiproliferative activity, MTT test; type: cell-based; conditions: Homo sapiens, MTT assay after 72 h exposure
Procedure: A series of synthesized indoline-5-sulfonamides was tested on the MCF7 cancer cell line under normoxia and hypoxia using the MTT test.
The MDR subline K562/4 [77] (kind gift of Dr. Alexander Shtil, Blokhin N.N. National Medical Research Center of Oncology) was obtained by stepwise selection of K562 cells for survival under continuous exposure to Dox. This subline expresses the MDR1 gene and functional P-gp and is characterized by a high resistance index for Dox. […] Cells in the logarithmic phase of growth were used in the experiments. The growth inhibitory activity of compounds was assessed by the MTT test based on the metabolism of the MTT reagent (3-[4,5-dimethylthiazol-2-yl]-2,5-diphenyltetrazolium bromide) (Applichem) in living cells, with modifications as described previously in [49]. Compounds at different concentrations in 100 μL of the appropriate medium were added, and the cells were grown for 72 h. The hypoxia (1% O2) conditions were simulated in Binder multigas incubator, as described in [49]. After incubation with compounds, the medium was removed, the MTT reagent that was dissolved in the medium was added to the final concentration of 0.2 mg/mL to each well, and the incubation was performed for 2 h. Then the cell supernatants were removed, and purple formazan crystals were dissolved in 100% DMSO (350 μL per well). Culture plates were gently shaken, and the absorbance was measured at 571 nm with a reference wavelength of 630 nm on a MultiScan reader (ThermoFisher, Waltham, MA, USA). The viability of the cells was expressed as a percentage of the control. Dose-response curves were analyzed by regression analysis using sigmoid curves (Log(concentration) vs. normalized absorbance).
All results were reported as means ± SD. One-way analysis of variance was used for the analysis of data. Differences were defined as significant at p < 0.05. GraphPad Prism7 (GraphPad Software, San Diego, CA, USA) was used for the determination of the half-maximal inhibitory concentration (IC50) values.

IC50 ([4]; hypoxia (1% O2), read-out: IC50 against MCF7 Cells, Hypoxia): 12.9 ± 1.2 µM | IC50 ([4]; normoxia, read-out: IC50 against MCF7 Cells, Normoxia): 24.5 ± 1.9 µM
SMILES: NS(=O)(=O)c1ccc2c(c1)CCN2C(=O)c1cccc(Cl)c1 [Compound 4f, 1-(3-Chlorobenzoyl)indoline-5-sulfonamide]
GLUT1 expression in A431 cells [1]: did not change | CA IX expression in A431 cells [2]: moderate decrease | PD-L1 expression in A431 cells [3]: did not change
